Experimental data as given in US20090041751A1, “Sepsis Prevention Through Adenosine Receptor Modulation” (priority 2005, published 2009).
Entries after “also recorded” stand apart in the source; their conditions may differ.

Columns and labels:
[1] = system: IL-10, IL-6, MIP-2, IL-12; experiment: Cytokine levels (ELISA) in plasma and peritoneal lavage fluid after CLP; format: in vivo, mouse
Description: The effect of pharmacological inactivation of A2A receptors in mice subjected to CLP was evaluated using CD-1 mice in a similar fashion to that described for the A2A receptor KO or WT mice. In this set of experiments, the mice were injected immediately before or 2 hours after the operation and every 12 hours thereafter with 4-(2-[7-amino-2-(2-furyl[1,2,4]-triazolo[2,3-a[1,3,5]triazin-5-yl-aminoethyl)phenol (“ZM241385”) (15 mg/kg, s.c.) or its vehicle (DMSO). Blood samples were obtained aseptically by cardiac puncture using heparinized syringes after opening the chest and placed on ice into heparinized Eppendorf tubes until further processing for hematological and bacteriological analysis. Aliquots of whole blood were analyzed for hematology by flow cytometry (CELL-DYN 3200 System, Abbott Laboratories) in a centralized facility. After serial dilutions for bacteriological analysis were made (see below), the blood was centrifuged at 2000×g for ten minutes and the recovered plasma stored at −70° C. until further use. For peritoneal lavage, the abdominal skin was cleansed with 70% ethanol and the abdominal wall exposed by opening the skin. Four milliliters of sterile physiological saline was then installed into the peritoneal cavity via an 18-gauge needle. The abdomen was massaged gently for 1 minute while keeping the tip of the needle in the peritoneum, after which procedure peritoneal fluid was recovered through the needle. Recovered peritoneal lavage fluid was placed on ice until processed for bacteriological examination. After serially diluting the peritoneal lavage fluid to determine CFU numbers (see below), the peritoneal lavage fluid was centrifuged at 5000×g for ten minutes and the supernatant stored at −70° C. until further analysis. Samples from spleen, thymus, lung, kidneys, and liver were excised and either immediately frozen in liquid nitrogen or placed in 10% paraformaldehyde for subsequent histological analysis. Snap-frozen tissue samples were transferred to a −70° C. refrigerator until analyzed for gene expression and apoptotic markers. Concentrations of IL-10, IL-6, IL-12 p70, TNF-α and MIP-2, in plasma or peritoneal lavage fluid were determined using commercially available ELISA kits (R&D Systems) and according to the manufacturer's instructions. The lower detection limit for all these cytokines was 10 pg/ml. Plasma concentrations of AST, ALT, and BUN were analyzed using standard laboratory procedures. Survival curves were analyzed using the two-tailed Fisher's exact test. Two-tailed t testing was used to compare cytokine concentrations, CFUs, and other laboratory parameters. Statistical significance was assigned to p values smaller than 0.05.

mice subjected to CLP = experiment: Survival after cecal ligation and puncture (CLP)-induced sepsis; format: in vivo, mouse; conditions: CD-1 mice
Text: For pharmacological studies with the selective A2A receptor antagonist 4-(2-[7-amino-2-(2-furyl)[1,2,4]triazolo[2,3-a][1,3,5]triazin-5-ylamino]ethyl)phenol(4-(2-[7-amino-2-(2-furyl[1,2,4]-triazolo[2,3-a[1,3,5]triazin-5-yl-aminoethyl)phenol (“ZM241385”); Tocris Cookson Inc.), male CD-1 mice were used that were purchased from Charles River Laboratories.
Polymicrobial sepsis was induced by subjecting mice to CLP, as we have described previously, with some modifications. Six-to-eight-week-old male A2a receptor KO or WT mice were anesthetized with Nembutal (80 mg/kg), given i.p. Under aseptic conditions, a 2-cm midline laparotomy was performed to allow exposure of the cecum with adjoining intestine. Approximately two-thirds of the cecum was tightly ligated with a 3.0 silk suture, and the ligated part of the cecum perforated twice (through and through) with a 20-gauge needle (Beckton Dickinson). The cecum was then gently squeezed to extrude a small amount of feces from the perforation sites. The cecum was then returned to the peritoneal cavity and the laparotomy closed in two layers with 4.0 silk sutures. Sham-operated animals underwent the same procedure without ligation or puncture of the cecum. The mice were resuscitated with 1 ml of physiological saline injected s.c., and returned to their cages with free access to food and water. One group of mice was monitored daily and survival recorded for 10 days. Another group of mice was re-anesthetized with Nembutal (80 mg/kg; i.p.) 16 or 48 hours after the operation, and blood, peritoneal lavage fluid, and various organs were harvested as described below.
The effect of pharmacological inactivation of A2A receptors in mice subjected to CLP was evaluated using CD-1 mice in a similar fashion to that described for the A2A receptor KO or WT mice. […]
Survival curves were analyzed using the two-tailed Fisher's exact test. […]

[2] = 15 mg/kg s.c. twice daily, 16 hours after CLP, FIG. 6C
[3] = 15 mg/kg s.c. twice daily, 16 hours after CLP, FIG. 6D
[4] = 15 mg/kg s.c. twice daily, 16 hours after CLP, FIG. 6E
[5] = mouse CLP sepsis model, FIG. 10, matrix not stated

Nc1nc(NCCc2ccc(O)cc2)nc2nc(-c3ccco3)nn12 [ZM241385]
IL-10 level in peritoneal lavage fluid vs vehicle-treated mice [1, 2]: decreased
IL-10 level in plasma vs vehicle-treated mice [1, 2]: decreased
IL-6 concentration in plasma vs vehicle-treated mice [1, 3]: comparable
IL-6 level in peritoneal fluid vs vehicle-treated mice [1, 3]: lower; also recorded: attenuated
MIP-2 level in peritoneal lavage fluid vs vehicle-treated mice [1, 4]: decreased
MIP-2 level in plasma vs vehicle-treated mice [1, 4]: decreased
IL-10 levels vs vehicle treated mice [1, 5]: Decreased levels
IL-12 concentrations vs vehicle treated mice [1, 5]: comparable
MIP-2 levels vs vehicle treated mice [1, 5]: Decreased levels
survival after CLP vs vehicle-treated mice, delayed administration (mice subjected to CLP; 15 mg/kg s.c. twice daily starting 2 hours after resuscitation, survival monitored 5 days, FIG. 6B, 15 mg/kg): still protective; also recorded: protects mice from death
survival after CLP vs vehicle-treated mice (mice subjected to CLP; 15 mg/kg s.c. twice daily starting at time of resuscitation (time 0), survival monitored 5 days, FIG. 6A, 15 mg/kg): significantly improved survival; also recorded: protects mice from death
survival after CLP (mice subjected to CLP; survival recorded for 2 days, FIG. 9): improved survival
